How the values were obtained:
[1] = target: T1, Sodium- and chloride-dependent glycine transporter 1 (Homo sapiens, UniProt P48067); test: Radioligand Binding Assay: Radioligand binding to human GlyT1c transporter-expressing membranes was carried out as described in Mezler et al., Molecular Pharmacology 74:1705-1715, 2008.More specifically, [3H]-(R)-NPTS radioligand binding to human GlyT1c transporter-expressing membranes was measured in duplicate in a total volume of 200 ul in 96-well plates. To 100 ul of membrane suspension (yielding a final membrane protein concentration of 50 ug/ml) in assay buffer (120 mM NaCl, 2 mM KCl, 10 mM Hepes, 1 mM MgCl2, 1 mM CaCl2, pH 7.5) 80 ul of [3H]-(R)-NPTS (0.5 nM final) were added in assay buffer. For competition experiments 10 ul of buffer or unlabeled compound solution obtained from dilution series of test compounds in DMSO followed. An intermediate 1:10 dilution in assay buffer yielded a final DMSO concentration of 1%. Non-specific binding was determined in the presence of 10 uM Org24598 (or its racemate Org24461) for [3H]-(R)-NPTS.
T1 sequence (P48067 whole entry): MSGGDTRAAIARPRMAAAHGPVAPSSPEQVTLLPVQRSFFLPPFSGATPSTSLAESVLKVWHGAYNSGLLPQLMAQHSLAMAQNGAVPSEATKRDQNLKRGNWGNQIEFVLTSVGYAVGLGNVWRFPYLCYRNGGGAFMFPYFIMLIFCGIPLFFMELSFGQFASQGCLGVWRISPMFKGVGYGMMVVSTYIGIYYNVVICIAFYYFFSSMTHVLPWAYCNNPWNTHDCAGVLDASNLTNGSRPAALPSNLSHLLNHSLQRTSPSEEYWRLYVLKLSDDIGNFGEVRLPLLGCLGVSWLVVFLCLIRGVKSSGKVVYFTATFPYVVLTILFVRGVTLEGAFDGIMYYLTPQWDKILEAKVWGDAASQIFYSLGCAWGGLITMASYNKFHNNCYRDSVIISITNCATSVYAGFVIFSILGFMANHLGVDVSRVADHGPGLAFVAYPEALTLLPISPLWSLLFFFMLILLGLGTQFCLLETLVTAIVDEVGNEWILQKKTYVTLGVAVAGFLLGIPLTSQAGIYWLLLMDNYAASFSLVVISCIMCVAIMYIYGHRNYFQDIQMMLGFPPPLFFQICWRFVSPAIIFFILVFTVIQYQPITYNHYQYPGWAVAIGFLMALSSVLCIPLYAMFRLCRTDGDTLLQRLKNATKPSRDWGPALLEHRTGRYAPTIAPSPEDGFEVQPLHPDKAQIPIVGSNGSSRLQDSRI

[2] = target: T1, Sodium- and chloride-dependent glycine transporter 1; test: Glycine Uptake Assay: [3H]-Glycine uptake into recombinant CHO cells expressing human GlyT1: Human GlyT1c expressing recombinant hGlyT1c_5_CHO cells were plated at 20,000 cells per well in 96 well Cytostar-T scintillation microplates (Amersham Biosciences) and cultured to sub-confluency for 24 h. For glycine uptake assays the culture medium was aspirated and the cells were washed once with 100 ul HBSS (Gibco BRL, #14025-050) with 5 mM L-Alanine (Merck #1007). 80 ul HBSS buffer were added, followed by 10 ul inhibitor or vehicle (10% DMSO) and 10 ul [3H]-glycine (TRK71, Amersham Biosciences) to a final concentration of 200 nM for initiation of glycine uptake. The plates were placed in a Wallac Microbeta (PerkinElmer) and continuously counted by solid phase scintillation spectrometry during up to 3 hours. Nonspecific uptake was determined in the presence of 10 uM Org2 4598. IC50 calculations were made by four-parametric logistic nonlinear regressi on analysis (GraphPad Prism).; assay type: cell-based

Row | Structure (SMILES) | Ki [1] [µM] | IC50 [2] [µM]
1 | CCCS(=O)(=O)NCCOc1ccc2c(c1)C(C1(c3cccc(F)c3)CCC1)NCC2 (stereo not given) | < 0.1 | < 0.1
2 | O=C1c2ccccc2C(=O)N1CCS(=O)(=O)NCCOc1ccc2c(c1)C(C1(c3ccc(Cl)cc3)CCC1)NCC2 (stereo not given) | < 10 | < 100
3 | Cc1oncc1S(=O)(=O)NCCOc1ccc2c(c1)C(C1(c3ccc(Cl)cc3)CCC1)NCC2 (stereo not given) | < 10 | 

Reference: ChEMBL document CHEMBL3638939, “Tetrahydroisoquinolines, pharmaceutical compositions containing them, and their use in therapy” (2014)
